Laboratory results reported in paper doi:10.1101/2022.06.13.496020v1 (biorxiv, 2022).

Tests used:
Assay in all cases: LANCE cAMP accumulation, transfected CHO-K1 cells
Format in all cases: cell-based
[1] = target: TSHR (full-length, 21-764) (Homo sapiens, UniProt P16473, V586A)
[2] = target: TSHR (full-length, 21-764) (Homo sapiens, UniProt P16473, M572A)
[3] = target: TSHR (full-length, 21-764) (Homo sapiens, UniProt P16473)
[4] = target: TSHR (full-length, 21-764) (Homo sapiens, UniProt P16473, A644F)
TSHR (full-length, 21-764) (Homo sapiens, UniProt P16473, A644F), sequence (P16473 21-764 A644F): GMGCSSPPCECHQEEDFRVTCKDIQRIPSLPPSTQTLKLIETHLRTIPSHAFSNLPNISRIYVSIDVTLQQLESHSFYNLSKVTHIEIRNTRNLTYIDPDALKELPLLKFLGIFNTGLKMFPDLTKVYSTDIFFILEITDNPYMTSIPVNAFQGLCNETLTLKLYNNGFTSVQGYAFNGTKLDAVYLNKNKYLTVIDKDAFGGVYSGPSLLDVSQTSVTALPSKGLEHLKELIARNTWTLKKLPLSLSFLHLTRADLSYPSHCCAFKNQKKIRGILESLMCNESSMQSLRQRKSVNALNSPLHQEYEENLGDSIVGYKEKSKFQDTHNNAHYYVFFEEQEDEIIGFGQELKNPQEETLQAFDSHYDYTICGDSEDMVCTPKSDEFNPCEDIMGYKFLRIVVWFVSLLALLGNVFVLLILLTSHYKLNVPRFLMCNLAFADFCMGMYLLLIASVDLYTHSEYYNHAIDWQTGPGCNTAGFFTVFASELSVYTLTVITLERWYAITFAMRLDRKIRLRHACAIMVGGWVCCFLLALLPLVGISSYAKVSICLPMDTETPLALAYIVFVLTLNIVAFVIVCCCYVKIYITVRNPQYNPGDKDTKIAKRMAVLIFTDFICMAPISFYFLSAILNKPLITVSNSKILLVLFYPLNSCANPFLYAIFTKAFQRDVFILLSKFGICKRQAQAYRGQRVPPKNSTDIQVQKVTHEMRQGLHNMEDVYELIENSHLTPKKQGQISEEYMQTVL

[5] = target: TSHR (full-length, 21-764) (Homo sapiens, UniProt P16473, I640A)
TSHR (full-length, 21-764) (Homo sapiens, UniProt P16473, I640A), sequence (P16473 21-764 I640A): as the sequence (P16473 21-764 A644F) above, with I620A, F624A counted along it

TSHR (full-length, 21-764) (Homo sapiens, UniProt P16473, V586A), sequence (P16473 21-764 V586A): as the sequence (P16473 21-764 A644F) above, with V566A, F624A counted along it
TSHR (full-length, 21-764) (Homo sapiens, UniProt P16473), sequence (P16473 21-764): as the sequence (P16473 21-764 A644F) above, with F624A counted along it
TSHR (full-length, 21-764) (Homo sapiens, UniProt P16473, M572A), sequence (P16473 21-764 M572A): as the sequence (P16473 21-764 A644F) above, with M552A, F624A counted along it

In the case of `COc1ccc([C@H]2Nc3cccc(O)c3C(=O)N2Cc2ccccc2)cc1COc1ccc(NC(C)=O)cc1` [ML-109], the EC50 [1] is reported as 2.04 µM, the EC50 [2] is reported as 2.4 µM and the EC50 [3] is reported as 0.331 µM. The EC50 [4] was 1.78 µM and the EC50 [5] was 1.15 µM.
